target: T1, 4-hydroxyphenylpyruvate dioxygenase (Homo sapiens, UniProt P32754); assay: Inhibition of purified His6-tagged recombinant human HPPD assessed as inhibition of maleylacetoacetate formation after 30 mins by UV/visible spectrophotometry
Target sequence in this assay (P32754 whole entry): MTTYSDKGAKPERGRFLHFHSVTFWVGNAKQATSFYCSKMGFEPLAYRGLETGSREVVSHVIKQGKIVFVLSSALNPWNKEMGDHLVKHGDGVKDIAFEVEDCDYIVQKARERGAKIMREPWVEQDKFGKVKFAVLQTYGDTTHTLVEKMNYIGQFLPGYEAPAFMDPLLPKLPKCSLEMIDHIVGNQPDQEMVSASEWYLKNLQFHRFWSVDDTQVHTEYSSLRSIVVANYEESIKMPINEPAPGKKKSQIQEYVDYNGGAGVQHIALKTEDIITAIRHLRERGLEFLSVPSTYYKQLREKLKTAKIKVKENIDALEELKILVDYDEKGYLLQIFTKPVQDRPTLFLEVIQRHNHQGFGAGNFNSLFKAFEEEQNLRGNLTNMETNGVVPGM

In order of rising Ki:
1. Cc1nc2ccc(C(=O)c3cnn(C)c3O)cc2c(=O)n1-c1cccc(Cl)c1  10 nM
2. Cc1ccc(-n2c(C)nc3ccc(C(=O)c4cnn(C)c4O)cc3c2=O)c(Br)c1  11 nM
3. Cc1cccc(-n2c(C)nc3ccc(C(=O)c4cnn(C)c4O)cc3c2=O)c1  13 nM
4. Cc1nc2ccc(C(=O)c3cnn(C)c3O)cc2c(=O)n1-c1cccc(Br)c1  14 nM
5. Cc1nc2ccc(C(=O)c3cnn(C)c3O)cc2c(=O)n1-c1ccccc1F  15 nM
6. Cc1nc2ccc(C(=O)c3cnn(C)c3O)cc2c(=O)n1-c1ccc(Br)cc1  18 nM
7. Cc1nc2ccc(C(=O)c3cnn(C)c3O)cc2c(=O)n1-c1ccccc1  19 nM
8. Cc1nc2ccc(C(=O)c3cnn(C)c3O)cc2c(=O)n1-c1cccc(F)c1  20 nM
9. Cc1nc2ccc(C(=O)c3cnn(C)c3O)cc2c(=O)n1-c1ccccc1Cl  22 nM
10. Cc1nc2ccc(C(=O)c3cnn(C)c3O)cc2c(=O)n1-c1ccc(Cl)cc1  22 nM
11. Cc1nc2ccc(C(=O)c3cnn(C)c3O)cc2c(=O)n1-c1ccccc1Br  24 nM
12. Cc1nc2ccc(C(=O)c3cnn(C)c3O)cc2c(=O)n1-c1ccc(Cl)c(Cl)c1  25 nM
13. Cc1ccc(-n2c(C)nc3ccc(C(=O)c4cnn(C)c4O)cc3c2=O)cc1  25 nM
14. Cc1nc2ccc(C(=O)c3cnn(C)c3O)cc2c(=O)n1-c1cccc(OC(F)(F)F)c1  31 nM
15. Cc1cc(Cl)ccc1-n1c(C)nc2ccc(C(=O)c3cnn(C)c3O)cc2c1=O  32 nM
16. Cc1nc2ccc(C(=O)c3cnn(C)c3O)cc2c(=O)n1-c1ccc(F)cc1  34 nM
17. COc1cccc(-n2c(C)nc3ccc(C(=O)c4cnn(C)c4O)cc3c2=O)c1  34 nM
18. COc1ccccc1-n1c(C)nc2ccc(C(=O)c3cnn(C)c3O)cc2c1=O  38 nM
19. Cc1cc(F)ccc1-n1c(C)nc2ccc(C(=O)c3cnn(C)c3O)cc2c1=O  40 nM
20. Cc1ccccc1-n1c(C)nc2ccc(C(=O)c3cnn(C)c3O)cc2c1=O  58 nM
21. Cc1ccc(-n2c(C)nc3ccc(C(=O)c4cnn(C)c4O)cc3c2=O)c(C)c1  59 nM
22. COc1ccc(-n2c(C)nc3ccc(C(=O)c4cnn(C)c4O)cc3c2=O)cc1  60 nM
23. Cc1cccc(-n2c(C)nc3ccc(C(=O)c4c(C)nn(C)c4O)cc3c2=O)c1  74 nM
24. Cc1nn(C)c(O)c1C(=O)c1ccc2nc(C)n(-c3ccccc3F)c(=O)c2c1  79 nM
25. Cc1ccc(-n2c(C)nc3ccc(C(=O)c4c(C)nn(C)c4O)cc3c2=O)c(F)c1  81 nM
26. Cc1nn(C)c(O)c1C(=O)c1ccc2nc(C)n(-c3ccccc3Cl)c(=O)c2c1  86 nM
27. Cc1ccc(-n2c(C)nc3ccc(C(=O)c4c(C)nn(C)c4O)cc3c2=O)c(Br)c1  87 nM
28. Cc1ccc(-n2c(C)nc3ccc(C(=O)c4cnn(C)c4O)cc3c2=O)c(Cl)c1  90 nM
29. Cc1nn(C)c(O)c1C(=O)c1ccc2nc(C)n(-c3cccc(F)c3)c(=O)c2c1  90 nM
30. Cc1nn(C)c(O)c1C(=O)c1ccc2nc(C)n(-c3cccc(Br)c3)c(=O)c2c1  93 nM
31. Cc1ccc(-n2c(C)nc3ccc(C(=O)c4c(C)nn(C)c4O)cc3c2=O)c(Cl)c1  109 nM
32. Cc1nn(C)c(O)c1C(=O)c1ccc2nc(C)n(-c3ccc(Br)cc3)c(=O)c2c1  130 nM
33. Cc1ccc(-n2c(C)nc3ccc(C(=O)c4c(C)nn(C)c4O)cc3c2=O)cc1  156 nM
34. Cc1nc2ccc(C(=O)c3cnn(C)c3O)cc2c(=O)n1-c1ccc(OC(F)(F)F)cc1  160 nM
35. Cc1ccc(-n2c(C)nc3ccc(C(=O)c4c(C)nn(C)c4O)cc3c2=O)c(C)c1  161 nM
36. Cc1ccc(-n2c(C)nc3ccc(C(=O)c4cnn(C)c4O)cc3c2=O)c(F)c1  170 nM
37. Cc1nn(C)c(O)c1C(=O)c1ccc2nc(C)n(-c3cccc(Cl)c3)c(=O)c2c1  173 nM
38. Cc1cc(Cl)ccc1-n1c(C)nc2ccc(C(=O)c3c(C)nn(C)c3O)cc2c1=O  177 nM
39. COc1ccccc1-n1c(C)nc2ccc(C(=O)c3c(C)nn(C)c3O)cc2c1=O  207 nM
40. Cc1cc(F)ccc1-n1c(C)nc2ccc(C(=O)c3c(C)nn(C)c3O)cc2c1=O  219 nM
41. Cc1nn(C)c(O)c1C(=O)c1ccc2nc(C)n(-c3ccc(Cl)cc3)c(=O)c2c1  237 nM
42. COc1ccc(-n2c(C)nc3ccc(C(=O)c4c(C)nn(C)c4O)cc3c2=O)cc1  238 nM
43. Cc1nn(C)c(O)c1C(=O)c1ccc2nc(C)n(-c3ccc(F)cc3)c(=O)c2c1  247 nM
44. Cc1ccccc1-n1c(C)nc2ccc(C(=O)c3c(C)nn(C)c3O)cc2c1=O  248 nM

target: T1, 4-hydroxyphenylpyruvate dioxygenase; assay: Ratio of Nitisinone Ki to compound Ki for purified His6-tagged recombinant human HPPD assessed as inhibition of maleylacetoacetate formation after 30 mins by UV/visible spectrophotometry
Target sequence in this assay (P32754 2-393 limits assumed): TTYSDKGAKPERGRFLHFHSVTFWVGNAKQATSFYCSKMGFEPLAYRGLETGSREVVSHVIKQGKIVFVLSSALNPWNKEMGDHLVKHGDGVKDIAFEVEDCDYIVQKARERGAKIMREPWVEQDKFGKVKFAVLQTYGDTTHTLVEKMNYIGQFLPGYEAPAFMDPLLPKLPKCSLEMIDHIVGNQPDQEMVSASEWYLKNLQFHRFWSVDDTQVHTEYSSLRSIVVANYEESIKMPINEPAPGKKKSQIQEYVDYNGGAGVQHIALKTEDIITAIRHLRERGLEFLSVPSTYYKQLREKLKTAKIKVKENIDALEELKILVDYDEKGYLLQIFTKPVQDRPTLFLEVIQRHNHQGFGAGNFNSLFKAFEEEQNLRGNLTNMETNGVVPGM

In order of rising Ratio Ki:
1. Cc1ccc(-n2c(C)nc3ccc(C(=O)c4cnn(C)c4O)cc3c2=O)c(Br)c1  3
2. Cc1nc2ccc(C(=O)c3cnn(C)c3O)cc2c(=O)n1-c1cccc(Cl)c1  3
